According to ChEMBL document CHEMBL2417394, “Exquisite selectivity for human toll-like receptor 8 in substituted furo[2,3-c]quinolines” (J Med Chem, 2013):
Activity calls are given as the source filed them.

Key:
[1] = molecular target: Toll-like receptor 3 (Homo sapiens) (UniProt O15455); experiment: Antagonist activity at human TLR3 expressed in HEK293 cells co-transfected with MD2 and sAP assessed as inhibition of NF-kappaB activity by reporter gene assay; type: cell-based
[2] = molecular target: T1, Toll-like receptor 8 (Homo sapiens) (UniProt Q9NR97); experiment: Antagonist activity at human TLR8 expressed in HEK293 cells co-transfected with MD2 and sAP assessed as inhibition of NF-kappaB activity by reporter gene assay; type: cell-based
T1 sequence (whole entry): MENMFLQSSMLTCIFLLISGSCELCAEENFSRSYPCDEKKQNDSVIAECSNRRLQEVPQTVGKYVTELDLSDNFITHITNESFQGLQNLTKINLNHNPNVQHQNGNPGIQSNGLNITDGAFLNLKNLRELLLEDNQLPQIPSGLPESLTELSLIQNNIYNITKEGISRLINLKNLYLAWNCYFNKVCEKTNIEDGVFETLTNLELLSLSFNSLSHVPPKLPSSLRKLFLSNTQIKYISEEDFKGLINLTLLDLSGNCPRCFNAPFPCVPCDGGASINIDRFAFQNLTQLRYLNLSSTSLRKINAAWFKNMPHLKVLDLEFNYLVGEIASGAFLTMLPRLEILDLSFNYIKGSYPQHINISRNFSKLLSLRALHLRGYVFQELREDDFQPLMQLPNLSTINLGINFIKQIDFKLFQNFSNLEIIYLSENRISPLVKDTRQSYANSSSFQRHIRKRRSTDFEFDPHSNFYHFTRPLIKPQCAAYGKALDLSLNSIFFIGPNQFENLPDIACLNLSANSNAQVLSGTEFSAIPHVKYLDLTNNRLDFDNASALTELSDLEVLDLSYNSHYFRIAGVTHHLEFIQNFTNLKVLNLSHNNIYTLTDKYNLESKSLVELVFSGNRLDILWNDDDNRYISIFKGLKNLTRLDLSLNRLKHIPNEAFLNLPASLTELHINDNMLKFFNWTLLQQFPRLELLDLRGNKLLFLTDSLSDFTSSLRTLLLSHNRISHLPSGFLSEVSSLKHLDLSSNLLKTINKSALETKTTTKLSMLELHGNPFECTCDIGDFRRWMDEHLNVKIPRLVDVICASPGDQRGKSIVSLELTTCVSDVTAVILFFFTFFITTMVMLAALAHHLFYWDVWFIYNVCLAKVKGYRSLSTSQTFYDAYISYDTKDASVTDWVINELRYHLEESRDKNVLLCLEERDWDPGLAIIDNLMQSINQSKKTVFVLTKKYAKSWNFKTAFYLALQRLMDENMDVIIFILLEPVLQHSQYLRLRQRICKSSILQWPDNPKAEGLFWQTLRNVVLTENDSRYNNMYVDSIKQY

[3] = molecular target: T2, Nucleotide-binding oligomerization domain-containing protein 1 (Homo sapiens) (UniProt Q9Y239); experiment: Antagonist activity at NOD1 (unknown origin)
T2 sequence (whole entry): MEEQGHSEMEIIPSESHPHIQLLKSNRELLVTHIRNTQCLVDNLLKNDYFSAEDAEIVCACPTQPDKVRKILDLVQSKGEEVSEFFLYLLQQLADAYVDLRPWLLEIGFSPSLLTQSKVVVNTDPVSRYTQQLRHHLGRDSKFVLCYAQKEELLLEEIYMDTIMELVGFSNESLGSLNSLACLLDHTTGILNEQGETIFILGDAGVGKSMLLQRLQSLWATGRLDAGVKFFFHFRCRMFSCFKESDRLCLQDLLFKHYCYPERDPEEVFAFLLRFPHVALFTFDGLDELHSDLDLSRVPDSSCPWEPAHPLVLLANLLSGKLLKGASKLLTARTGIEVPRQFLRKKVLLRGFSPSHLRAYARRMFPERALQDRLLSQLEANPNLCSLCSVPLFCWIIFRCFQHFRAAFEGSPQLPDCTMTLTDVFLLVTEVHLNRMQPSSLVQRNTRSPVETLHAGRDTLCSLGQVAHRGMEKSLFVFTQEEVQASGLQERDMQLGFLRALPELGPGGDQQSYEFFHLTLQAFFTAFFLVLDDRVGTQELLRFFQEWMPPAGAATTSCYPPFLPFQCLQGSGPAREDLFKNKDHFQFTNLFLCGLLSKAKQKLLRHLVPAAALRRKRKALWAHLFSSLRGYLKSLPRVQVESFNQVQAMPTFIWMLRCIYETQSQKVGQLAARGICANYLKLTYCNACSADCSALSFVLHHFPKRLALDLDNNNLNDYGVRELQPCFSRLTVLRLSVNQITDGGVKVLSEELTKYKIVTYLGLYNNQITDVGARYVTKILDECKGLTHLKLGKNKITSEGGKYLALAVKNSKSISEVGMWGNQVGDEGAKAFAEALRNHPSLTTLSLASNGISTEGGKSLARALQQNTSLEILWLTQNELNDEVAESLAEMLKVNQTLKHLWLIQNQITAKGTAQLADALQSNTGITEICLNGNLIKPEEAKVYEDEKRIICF

Measured: inhibition

Toll-like receptor 3 (Homo sapiens), sequence (O15455 whole entry): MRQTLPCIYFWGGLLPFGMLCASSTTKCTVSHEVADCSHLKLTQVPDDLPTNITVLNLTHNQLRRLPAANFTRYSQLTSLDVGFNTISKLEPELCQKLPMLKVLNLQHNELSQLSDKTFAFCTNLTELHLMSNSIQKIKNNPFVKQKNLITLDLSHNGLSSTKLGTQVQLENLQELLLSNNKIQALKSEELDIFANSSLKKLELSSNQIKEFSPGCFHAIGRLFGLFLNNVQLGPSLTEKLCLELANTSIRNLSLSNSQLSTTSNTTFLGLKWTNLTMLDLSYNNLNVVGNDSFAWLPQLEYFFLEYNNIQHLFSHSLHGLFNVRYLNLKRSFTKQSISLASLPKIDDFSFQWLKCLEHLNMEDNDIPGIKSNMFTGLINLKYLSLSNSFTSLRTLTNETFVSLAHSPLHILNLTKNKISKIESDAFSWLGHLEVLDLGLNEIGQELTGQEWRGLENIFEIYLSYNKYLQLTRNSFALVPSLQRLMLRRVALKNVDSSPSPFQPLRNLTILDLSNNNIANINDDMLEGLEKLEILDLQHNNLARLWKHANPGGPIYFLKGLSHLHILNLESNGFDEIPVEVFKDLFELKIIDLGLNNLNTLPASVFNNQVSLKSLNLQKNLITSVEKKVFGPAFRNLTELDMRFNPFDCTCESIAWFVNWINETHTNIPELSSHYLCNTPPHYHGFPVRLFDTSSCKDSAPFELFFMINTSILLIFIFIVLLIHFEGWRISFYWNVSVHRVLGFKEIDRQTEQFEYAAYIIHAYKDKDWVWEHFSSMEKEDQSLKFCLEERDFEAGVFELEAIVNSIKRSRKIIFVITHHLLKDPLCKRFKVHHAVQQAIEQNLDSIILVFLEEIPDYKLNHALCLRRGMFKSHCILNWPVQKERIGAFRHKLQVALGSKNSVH

CCCc1cc2c(N)nc3ccccc3c2o1
inactive: all assays above

Nc1nc2ccccc2c2oc(-c3ccccc3)cc12
inactive: all assays above

CCCCc1cc2c(N)nc3ccccc3c2o1
inactive: all assays above

CCCCc1cc2c(nc(N)c3ccccc32)o1
inactive: all assays above
